Compared with `CCOC(OCC)c1cccc2c1Sc1c(C=O)cccc1N2C`, `Cn1c(=O)c(-c2ccc(Cl)cc2Cl)cc2c3cc(C=O)ccc3n(C)c21` is higher in melting point: 154 °C for the first, 284 °C for the second.

First: Fc1ccc(C(=C(c2ccccc2)C(F)(F)F)c2ccc(OCCN3CCOCC3)cc2)cc1
Second: c1ccc2c(c1)c(-c1cc3nccnc3[nH]1)cn2CCCN1CCOCC1
The melting point of the first is lower: 95 to 96 °C for the first, 180 to 185 °C for the second.

First: Clc1ccc(Oc2cncc3sc(-c4nnn[nH]4)cc23)cc1
Second: CNC(=O)c1cc2c(Oc3ccc(-n4cccn4)cc3)cncc2s1
The melting point of the first is higher: 250 to 254 °C for the first, 192 to 194 °C for the second.

First: O=C(Cc1csc(Nc2ccccc2)n1)NC1CCN(Cc2ccc(Cl)c(Cl)c2)CC1
Second: COc1c(C(=O)NCCN2CCN(c3cccc(Cl)c3Cl)CC2)cc(Br)c2ccccc12
The melting point of the first is higher: 191 to 192 °C for the first, 137 °C for the second.

First: c1cnc2[nH]cc(CN3CCN(c4ccc5c(c4)OCO5)CC3)c2c1
Second: O=C1OC(CCCCN2CCN(c3ccccn3)CC2)CN1c1ccccc1 (stereo not given)
The melting point of the first is higher: 196 to 199 °C for the first, 78 to 81 °C for the second.

First: C[C@@H]1CNC(=O)c2cc3cc(F)cc(Br)c3n21
Second: Cc1nc2c(c3c1[nH]c1cc(F)ccc13)C(=O)CC(C(C)C)C2 (stereo not given)
The melting point of the first is lower: 188 °C for the first, 285 to 286 °C for the second.

Compared with `CCCCCCn1c(C)c(C(=O)N(CCCC)CCCC)c2c(CN3CCCCC3)c(O)c(C(=O)CC)cc21`, `CCCCN(CCCC)S(=O)(=O)N[C@@H](Cc1ccc(NC(=O)c2c(Cl)cncc2Cl)cc1)C(=O)O` is higher in melting point: 124 to 125 °C for the first, 167 °C for the second.

Compared with `CCCCC(CC)Cn1c(O)c(N=Nc2ccc(S(=O)(=O)N(CCO)CCO)cc2)c(C)c(C#N)c1=O` (stereo not given), `O=S(=O)(NCCc1ccc(C(O)CCCO)cc1)c1ccc(Br)cc1` (stereo not given) is lower in melting point: 189 to 190 °C for the first, 107 to 108 °C for the second.

Compared with `CCN(CC)C(Cc1cccs1)=Nc1ccc2sc3ccccc3c2c1`, `c1ccc(-c2ccc(-c3cc4ccccc4[nH]3)cc2)cc1` is higher in melting point: 114 to 115 °C for the first, 301 °C for the second.

Going from `CC1Oc2c(C#N)cc(F)cc2C=C1n1nc(C(F)(F)F)n(C)c1=S` (stereo not given) to `O=C(O)C1=Cc2cc(Cl)c(Oc3ccc(Cl)c(F)c3)cc2OC1C(F)(F)F` (stereo not given), the melting point rises from 144 °C to 207 °C.

Compared with `CCOC(=O)c1ccc(/C=C(\CC)c2ccc3c(c2)C(C)(C)CCC3(C)C)cc1`, `N[C@@H](Cc1cccc(Oc2ccc(Oc3ccc(O)cc3)cc2)c1)C(=O)O` is lower in melting point: 82 to 83 °C for the first, 67 to 71 °C for the second.

Compared with `CCCc1c(C(=O)C(C)C)c2ccc(C(=O)O)cc2n1Cc1ccc(Br)cc1F`, `CCCCc1nc([N+](=O)[O-])c(CSc2ccccc2C(=O)O)n1Cc1ccc(C(=O)O)cc1` is higher in melting point: 210 to 211 °C for the first, 246 to 247 °C for the second.

Compared with `O=C(O)Cc1ccc(-c2nc3cccc(Cl)c3o2)cc1`, `OCC1Cn2c(nc3ccccc32)-c2ccccc2O1` (stereo not given) is lower in melting point: 205 to 210 °C for the first, 142 to 144 °C for the second.

First: COC(CCCNC(=O)C=CC(=O)NCCCC(OC)OC)OC
Second: CCOC(=O)C(C)(NC(C)=O)C(=O)OCC
The melting point of the first is higher: 170 to 172 °C for the first, 89 to 90 °C for the second.

First: CC(O)C(NC(=O)OC(C)(C)C)C(=O)OCC(=O)c1ccccc1 (stereo not given)
Second: CC(C)(C(CC(=O)c1ccccc1)c1cccnc1)[N+](=O)[O-] (stereo not given)
The melting point of the first is lower: 114 °C for the first, 134 to 135 °C for the second.

Compared with `Cc1ccc(NS(=O)(=O)c2ccc([N+](=O)[O-])cc2)cc1`, `CC(C)c1nc(CCO)n(Cc2ccc([N+](=O)[O-])cc2)c1Sc1cc(Cl)cc(Cl)c1` is lower in melting point: 170 to 172 °C for the first, 142 to 145 °C for the second.

First: CC(=O)NC[C@H]1CN(c2ccc(N3CCC(F)(CCl)CC3)c(F)c2)C(=O)O1
Second: CC12CCC(C(=O)N(CCCCN3CCN(c4ccccn4)CC3)C1=O)C2(C)C (stereo not given)
The melting point of the first is higher: 158 to 160 °C for the first, 96 to 97 °C for the second.

Compared with `CNc1cc(C(C)=O)ccc1OCCCCl`, `COc1cc(C(=O)CCl)ccc1O` is lower in melting point: 115 to 117 °C for the first, 102 to 103 °C for the second.

First: NS(=O)(=O)c1cccc2c1c([N+](=O)[O-])cc1nc(O)c(O)nc12
Second: COC(=O)C1=C(C)Nc2c(c(C)nn2C)C1c1ccccc1[N+](=O)[O-] (stereo not given)
The melting point of the first is higher: 360 °C for the first, 216 to 220 °C for the second.

First: O=C1CCCc2cc(O)cc(O)c21
Second: CC1CC2=CC(=O)C=CC2(C)C2C(=O)CC3(C)C(=O)CCC3C12 (stereo not given)
The melting point of the first is lower: 209 to 210 °C for the first, 257 to 259 °C for the second.

First: COC(=O)Oc1sc(-c2ccc(F)cc2)nc(=O)c1-c1c(C)cc(C)cc1C
Second: CCOC(=O)c1cn(C(C)(C)C)c2nc(F)c(Cl)cc2c1=O
The melting point of the first is lower: 129 to 131 °C for the first, 155 °C for the second.

First: CC(C)OC(=O)COc1ccc(C(=O)CBr)cc1
Second: Cn1c(C(F)(F)F)cc(=O)n(-c2cc(OCC(=O)c3ccccc3)c(Cl)cc2F)c1=O
The melting point of the first is lower: 60 to 61 °C for the first, 152 to 153 °C for the second.

Compared with `Cc1nn(C)c(C2=NC(C)CN2)c1[N+](=O)[O-]` (stereo not given), `Cc1nc2c(OCc3ccccc3)cc(Br)cn2c1C` is higher in melting point: 98 to 101 °C for the first, 151 to 153 °C for the second.

Going from `CN(C)CCn1c(=O)c2c3oc4ccccc4oc3c3[nH]c4ccc(O)cc4c3c2c1=O` to `COc1ccc(-c2c(SCc3ccccc3)oc3cc(OCc4ccccc4)ccc3c2=O)cc1`, the melting point falls from greater than 360 °C to 131 °C.

First: CCOC(=O)C(=NOCC(N)=O)c1csc(NC(c2ccccc2)(c2ccccc2)c2ccccc2)n1
Second: OC(c1ccc2c(c1)CCN2Cc1ccccc1)(C(F)(F)F)C(F)(F)F
The melting point of the first is higher: 180 °C for the first, 85 to 90 °C for the second.
